# Data reported in PubChem BioAssay (NCI).
#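 Dose response: 5 concentrations. Exposure: 48 h. Format: 96-well plates. Endpoint: linear interpolation; highest concentration if not reached. TGI: concentration producing complete growth inhibition.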
# Tests used:
# Test in all cases: inhibition of tumour cell growth, NCI panel, 48 h
# [1] = system: 786-0 renal
# [2] = system: A498 renal
# [3] = system: A549 NSCLC
# [4] = system: ACHN renal
# [5] = system: BT-549 breast
# [6] = system: CAKI-1 renal
# [7] = system: CCRF-CEM leukemia
# [8] = system: COLO 205 colon
# [9] = system: DLD-1 colon
# [10] = system: DU-145 prostate
# [11] = system: EKVX NSCLC
# [12] = system: HCC-2998 colon
# [13] = system: HCT-116 colon
# [14] = system: HCT-15 colon
# [15] = system: HL-60(TB) leukemia
# [16] = system: HOP-18 NSCLC
# [17] = system: HOP-62 NSCLC
# [18] = system: HOP-92 NSCLC
# [19] = system: HS 578T breast
# [20] = system: HT29 colon
# [21] = system: IGROV1 ovarian
# [22] = system: K-562 leukemia
# [23] = system: KM12 colon
# [24] = system: KM20L2 colon
# [25] = system: LOX IMVI melanoma
# [26] = system: LXFL 529 NSCLC
# [27] = system: M14 melanoma
# [28] = system: M19-MEL melanoma
# [29] = system: MALME-3M melanoma
# [30] = system: MCF7 breast
# [31] = system: MDA-MB-231 breast
# [32] = system: MDA-MB-435
# [33] = system: MDA-N
# [34] = system: MOLT-4 leukemia
# [35] = system: NCI-H226 lung
# [36] = system: NCI-H23 lung
# [37] = system: NCI-H460 lung
# [38] = system: NCI-H522 lung
# [39] = system: NCI/ADR-RES ovarian
# [40] = system: OVCAR-3 ovarian
# [41] = system: OVCAR-4 ovarian
# [42] = system: OVCAR-5 ovarian
# [43] = system: OVCAR-8 ovarian
# [44] = system: PC-3 prostate
# [45] = system: RPMI-8226 leukemia
# [46] = system: RXF 393 renal
# [47] = system: RXF-631 renal
# [48] = system: SF-268 CNS
# [49] = system: SF-295 CNS
# [50] = system: SF-539 CNS
# [51] = system: SK-MEL-2 melanoma
# [52] = system: SK-MEL-28 melanoma
# [53] = system: SK-MEL-5 melanoma
# [54] = system: SK-OV-3 ovarian
# [55] = system: SN12C renal
# [56] = system: SNB-19 CNS
# [57] = system: SNB-75 CNS
# [58] = system: SR leukemia
# [59] = system: SW-620 colon
# [60] = system: TK-10 renal
# [61] = system: U251 CNS
# [62] = system: UACC-257 melanoma
# [63] = system: UACC-62 melanoma
# [64] = system: UO-31 renal
# [65] = system: XF 498 CNS
# [66] = system: DMS 114 small cell lung
# [67] = system: SNB-78 CNS
# [68] = system: DMS 273 small cell lung
smiles,measurement,setting,value
N#CCC(=O)N/N=C(\CCN1CCCC1)CC(c1ccccc1)c1c(O)c2ccccc2oc1=O (stereo unspecified),TGI,[1],> 100 µM
same,TGI,[2],> 85.5 µM
same,TGI,[3],> 100 µM
same,TGI,[4],> 100 µM
same,TGI,[5],> 100 µM
same,TGI,[6],> 100 µM
same,TGI,[7],> 94.8 µM
same,TGI,[8],> 56.8 µM
same,TGI,[9],> 100 µM
same,TGI,[10],> 100 µM
same,TGI,[11],> 100 µM
same,TGI,[12],> 100 µM
same,TGI,[13],> 100 µM
same,TGI,[14],> 100 µM
same,TGI,[15],59.6 µM
same,TGI,[16],> 100 µM
same,TGI,[17],> 100 µM
same,TGI,[18],> 100 µM
same,TGI,[19],> 100 µM
same,TGI,[20],> 100 µM
same,TGI,[21],> 100 µM
same,TGI,[22],> 100 µM
same,TGI,[23],> 100 µM
same,TGI,[24],> 100 µM
same,TGI,[25],> 64.7 µM
same,TGI,[26],> 100 µM
same,TGI,[27],> 100 µM
same,TGI,[28],> 100 µM
same,TGI,[29],> 100 µM
same,TGI,[30],45.9 µM
same,TGI,[31],> 100 µM
same,TGI,[32],> 100 µM
same,TGI,[33],> 100 µM
same,TGI,[34],61.5 µM
same,TGI,[35],> 100 µM
same,TGI,[36],> 100 µM
same,TGI,[37],> 100 µM
same,TGI,[38],> 100 µM
same,TGI,[39],> 100 µM
same,TGI,[40],> 100 µM
same,TGI,[41],> 100 µM
same,TGI,[42],> 100 µM
same,TGI,[43],> 100 µM
same,TGI,[44],> 100 µM
same,TGI,[45],> 92.8 µM
same,TGI,[46],> 100 µM
same,TGI,[47],> 100 µM
same,TGI,[48],> 100 µM
same,TGI,[49],> 100 µM
same,TGI,[50],> 100 µM
same,TGI,[51],> 100 µM
same,TGI,[52],> 100 µM
same,TGI,[53],> 100 µM
same,TGI,[54],> 100 µM
same,TGI,[55],> 100 µM
same,TGI,[56],> 100 µM
same,TGI,[57],> 100 µM
same,TGI,[58],69.8 µM
same,TGI,[59],> 100 µM
same,TGI,[60],> 100 µM
same,TGI,[61],> 100 µM
same,TGI,[62],> 100 µM
same,TGI,[63],> 100 µM
same,TGI,[64],> 100 µM
same,TGI,[65],> 100 µM
CC(C)=CC1CC(=O)C1(C)Sc1ccccc1 (stereo unspecified),TGI,[1],> 100 µM
same,TGI,[2],> 100 µM
same,TGI,[3],> 100 µM
same,TGI,[4],> 100 µM
same,TGI,[6],> 100 µM
same,TGI,[7],45 µM
same,TGI,[8],65.1 µM
same,TGI,[9],> 100 µM
same,TGI,[66],32.6 µM
same,TGI,[11],> 100 µM
same,TGI,[12],> 100 µM
same,TGI,[13],> 100 µM
same,TGI,[14],34.8 µM
same,TGI,[15],46.7 µM
same,TGI,[16],> 100 µM
same,TGI,[17],> 100 µM
same,TGI,[18],87 µM
same,TGI,[20],66.6 µM
same,TGI,[21],> 100 µM
same,TGI,[22],59.4 µM
same,TGI,[23],> 100 µM
same,TGI,[24],> 100 µM
same,TGI,[25],36.1 µM
same,TGI,[26],> 100 µM
same,TGI,[27],> 100 µM
same,TGI,[28],72.1 µM
same,TGI,[29],> 100 µM
same,TGI,[34],92.1 µM
same,TGI,[35],> 100 µM
same,TGI,[36],> 100 µM
same,TGI,[37],54.4 µM
same,TGI,[38],69.1 µM
same,TGI,[40],> 100 µM
same,TGI,[41],> 100 µM
same,TGI,[42],> 100 µM
same,TGI,[43],> 100 µM
same,TGI,[45],45.9 µM
same,TGI,[46],72 µM
same,TGI,[47],> 100 µM
same,TGI,[48],> 100 µM
same,TGI,[49],> 100 µM
same,TGI,[50],> 100 µM
same,TGI,[51],> 100 µM
same,TGI,[52],> 100 µM
same,TGI,[53],> 100 µM
same,TGI,[54],> 100 µM
same,TGI,[55],> 100 µM
same,TGI,[56],> 100 µM
same,TGI,[57],> 100 µM
same,TGI,[67],> 100 µM
same,TGI,[58],41.4 µM
same,TGI,[60],> 100 µM
same,TGI,[61],> 100 µM
same,TGI,[62],> 100 µM
same,TGI,[63],> 100 µM
same,TGI,[64],> 100 µM
same,TGI,[65],95.7 µM
CN1CCC(SC2Cc3cc(Cl)ccc3Sc3ccccc32)CC1 (stereo unspecified),TGI,[1],27.7 µM
same,TGI,[2],31.6 µM
same,TGI,[3],29.7 µM
same,TGI,[4],28.6 µM
same,TGI,[6],23.7 µM
same,TGI,[8],27.2 µM
same,TGI,[9],28.2 µM
same,TGI,[68],26.2 µM
same,TGI,[11],34 µM
same,TGI,[12],21.3 µM
same,TGI,[13],22.5 µM
same,TGI,[14],31.1 µM
same,TGI,[15],19.5 µM
same,TGI,[16],26.7 µM
same,TGI,[18],26.9 µM
same,TGI,[20],15.3 µM
same,TGI,[21],29.6 µM
same,TGI,[22],21.9 µM
same,TGI,[23],23.2 µM
same,TGI,[24],17.8 µM
same,TGI,[25],25.7 µM
same,TGI,[26],26.3 µM
same,TGI,[27],15.7 µM
same,TGI,[28],25.3 µM
same,TGI,[29],28.8 µM
same,TGI,[34],20.3 µM
same,TGI,[35],30 µM
same,TGI,[36],27.9 µM
same,TGI,[37],31.4 µM
same,TGI,[38],28.4 µM
same,TGI,[40],28.2 µM
same,TGI,[41],29 µM
same,TGI,[42],30.3 µM
same,TGI,[43],31.5 µM
same,TGI,[45],23.3 µM
same,TGI,[46],17.1 µM
same,TGI,[47],27.9 µM
same,TGI,[48],25.5 µM
same,TGI,[49],30.7 µM
same,TGI,[50],33.8 µM
same,TGI,[52],4.78 µM
same,TGI,[53],26.8 µM
same,TGI,[54],30.4 µM
same,TGI,[55],28.5 µM
same,TGI,[56],29 µM
same,TGI,[57],22.2 µM
same,TGI,[58],23.1 µM
same,TGI,[59],30.9 µM
same,TGI,[60],26.5 µM
same,TGI,[61],27.9 µM
same,TGI,[62],21.3 µM
same,TGI,[63],11.4 µM
same,TGI,[64],16.7 µM
same,TGI,[65],30 µM
